This is an account of results in ChEMBL document CHEMBL1201862, “PubChem BioAssay data set” (2004).

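Cells were grown in 96-well plates and exposed to each compound for 48 hours at five concentrations; endpoints were interpolated linearly between bracketing concentrations, or set to the highest concentration if not reached. GI50: concentration for 50% inhibition of growth.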 The source made the active and inactive calls. No stated cut-off is given here; in the data, active = GI50 up to about 1.1 µM and inactive = higher.

Some test systems named below: RXF 631; DMS-114; KM-20L2; DMS-273; M19-MEL; LXFL 529; SNB-78; HOP-18; XF498.
What all share (assay): growth of human tumour cells (NCI), 48 h

For `N=c1nc(N)c2cc3c(N)nc(=N)c3cc12`, the GI50 with RXF 631 was 14.5 µM (inactive); in the assay on DMS-114, 5.74 µM (inactive); in the assay on KM-20L2, > 100 µM (inactive); in the assay with DMS-273, 30.7 µM (inactive); with M19-MEL, 1.87 µM (inactive); in the assay with LXFL 529, 38.1 µM (inactive). Besides, the results for the GI50 in the assay on SNB-78 and with HOP-18 were 9.35 µM (inactive) and 8.97 µM (inactive), respectively.
As to `CCOc1ccccc1N1C(=O)C(=O)C(c2nc3ccccc3o2)/C(=N\N)C1=O` (centres undefined), the GI50 in the assay on DMS-114, in the assay with KM-20L2, in the assay on DMS-273, in the assay on M19-MEL, with LXFL 529 and in the assay with SNB-78 was > 100 µM (inactive) each time.
`CN(C)c1n/c(=N/c2ncn[nH]2)ss1`: the GI50 in the assay on DMS-114, with KM-20L2, with DMS-273, with M19-MEL, in the assay with LXFL 529 and with SNB-78 was > 100 µM (inactive) in each case. For the same compound, the GI50 in the assay on HOP-18 and in the assay on XF498 was > 100 µM (inactive) in each case.
With `O=C(O)c1ccc(C2COc3ccc(Cl)cc3C2)cc1` (centres undefined), the GI50 in the assay with DMS-114, in the assay with KM-20L2, in the assay on DMS-273, in the assay with M19-MEL, with LXFL 529 and with SNB-78 was > 100 µM (inactive) each time. In addition, the GI50 in the assay on HOP-18 and in the assay with XF498 was > 100 µM (inactive) throughout.
Consider `CN(C)CCNC(=O)c1cccc2ncc(-c3ccccc3)nc12`, for which the GI50 in the assay with RXF 631 was 9.59 µM (inactive); in the assay with DMS-114, 12.8 µM (inactive); in the assay with KM-20L2, 3.81 µM (inactive); in the assay with DMS-273, 5.09 µM (inactive); in the assay on M19-MEL, 14.2 µM (inactive); in the assay with LXFL 529, 6.81 µM (inactive). For the same compound, the GI50 in the assay with SNB-78 was 8.89 µM (inactive); with HOP-18, 5.85 µM (inactive).
For `COc1ccc(C(N)=O)cc1/N=N/N(C)C`, the GI50 in the assay with KM-20L2, in the assay on DMS-273, in the assay on M19-MEL, in the assay on LXFL 529 and in the assay with HOP-18 was > 100 µM (inactive) in each case.
For the compound `CCC1(c2ccncc2)CCC(=O)NC1=O` (centres undefined) [ROGLETIMIDE], the GI50 in the assay on RXF 631, in the assay on DMS-114, in the assay with KM-20L2, in the assay on M19-MEL, with LXFL 529 and in the assay on SNB-78 was > 100 µM (inactive) throughout. Besides, the GI50 with XF498 is > 100 µM (inactive).
For the compound `CCOC(=O)C(=O)Nc1ccc(C)c(C)c1`, the GI50 was > 100 µM (inactive) in the assay on RXF 631; > 40.9 µM (inactive) with DMS-114; > 100 µM (inactive) in the assay on KM-20L2; 34.8 µM (inactive) in the assay on DMS-273; > 67.5 µM (inactive) with M19-MEL; > 86.9 µM (inactive) with LXFL 529. For the same compound, in the assay on SNB-78, the GI50 was > 100 µM (inactive).
In the case of `N=C(N)SCc1cn2ccccc2n1`, the GI50 in the assay with DMS-114, in the assay with DMS-273, in the assay on M19-MEL, in the assay on SNB-78, with HOP-18 and in the assay with XF498 was > 100 µM (inactive) in each case.
With `Cc1ccccc1NC(=O)C1C(=O)N(c2ccccc2C)C(=O)/C1=N\N` (centres undefined), the GI50 with RXF 631, with DMS-114, with KM-20L2, in the assay on M19-MEL, with LXFL 529 and in the assay with SNB-78 was > 100 µM (inactive) throughout. In the assay on HOP-18, the GI50 is > 100 µM (inactive).
`CC1=C(C(=O)Nc2ccccc2C)C(c2ccc(C3C(C(=O)Nc4ccccc4C)=CNC=C3C(=O)Nc3ccccc3C)cc2)C(C(=O)Nc2ccccc2C)=C(C)N1`: the GI50 is 23.3 µM (inactive) with DMS-114; 14.7 µM (inactive) in the assay with KM-20L2; 20.7 µM (inactive) with DMS-273; 23.8 µM (inactive) in the assay on M19-MEL; 10.9 µM (inactive) in the assay on LXFL 529; 30.2 µM (inactive) in the assay with SNB-78. Moreover, the GI50 in the assay with HOP-18 is 37 µM (inactive); in the assay on XF498 it was 22.8 µM (inactive).
As to `Nc1nncs1`, the GI50 in the assay with DMS-114 was 1960 µM (inactive); with KM-20L2, 301 µM (inactive); with DMS-273, 450 µM (inactive); in the assay on M19-MEL it was 1090 µM (inactive); with SNB-78, 3240 µM (inactive); with HOP-18, 3030 µM (inactive). For the same compound, in the assay on XF498, the GI50 was 879 µM (inactive).
In the case of `COC(=O)C1C(=O)CC2CCCCC21` (centres undefined), the GI50 in the assay with DMS-114, with KM-20L2, in the assay on DMS-273, in the assay with M19-MEL, in the assay on LXFL 529 and in the assay on SNB-78 was > 100 µM (inactive) each time.
Take `COc1c(C)c(O)c2c(=O)cc(-c3ccccc3)oc2c1C`: the GI50 in the assay with RXF 631, in the assay on DMS-114, in the assay on KM-20L2, in the assay with M19-MEL, in the assay on LXFL 529 and with SNB-78 was > 100 µM (inactive) throughout. For the same compound, the GI50 in the assay on HOP-18 was > 100 µM (inactive).
On to `Clc1ccccc1CN1COc2c(ccc3cccnc23)C1`, for which the GI50 with DMS-114 was 2.67 µM (inactive); in the assay on KM-20L2 it was 15.7 µM (inactive); in the assay on DMS-273 it was 3.42 µM (inactive); with M19-MEL, 4.14 µM (inactive); in the assay with SNB-78, 3.37 µM (inactive); with XF498, 9.68 µM (inactive).
As for `CCCCCCCCCCCCCCCC(=O)OCCOCCOCCOCc1ccccc1`, the GI50 in the assay on DMS-273 is > 100 µM (inactive); in the assay with M19-MEL, > 100 µM (inactive); with SNB-78, > 100 µM (inactive); in the assay on HOP-18, 50.8 µM (inactive); in the assay with XF498, > 100 µM (inactive).
With `COc1ccc2cc1Oc1ccc(cc1)CC1c3cc(c(OC)cc3CCN1C)Oc1c3c(cc4c1C(C2)N(C)CC4)OCO3` (centres undefined), the GI50 in the assay with RXF 631 is 13.7 µM (inactive); in the assay on DMS-114, 5.74 µM (inactive); in the assay with KM-20L2, 2.08 µM (inactive); in the assay on DMS-273 it was 3.44 µM (inactive); in the assay on M19-MEL it was 3.85 µM (inactive); in the assay with LXFL 529, 13 µM (inactive). The GI50 in the assay on SNB-78 is 13.9 µM (inactive); with XF498 it was 9.55 µM (inactive).
Regarding `CCC(=O)N1C(=S)SC[C@H]1C(=O)OC`, the GI50 with DMS-114, in the assay with KM-20L2, in the assay with DMS-273, in the assay with M19-MEL, in the assay with LXFL 529 and in the assay with SNB-78 was > 100 µM (inactive) throughout. Besides, the GI50 with HOP-18 was > 100 µM (inactive); in the assay on XF498, 7.4 µM (inactive).
As to `CC1(C=O)C(=O)CCC2(C)C3CC(=O)OC3CCC12` (centres undefined), the GI50 in the assay with DMS-114, with KM-20L2, with DMS-273, with M19-MEL, with LXFL 529 and with HOP-18 was > 100 µM (inactive) each time.
With `CCCCNCCCNCCCNC(=O)c1csc(-c2csc(CCNC(=O)C(NC(=O)C(C)C(O)C(C)NC(=O)C(NC(=O)c3nc(C(CC(N)=O)NCC(N)C(N)=O)nc(N)c3C)C(OC3OC(CO)C(O)C(O)C3OC3OC(CO)C(O)C(OC(N)=O)C3O)c3c[nH]cn3)C(C)O)n2)n1` (centres undefined), the GI50 is 3.58 µM (inactive) with RXF 631; 0.611 µM (active) in the assay with DMS-114; 61.5 µM (inactive) with KM-20L2; < 0.0458 µM (active) with DMS-273; 8.89 µM (inactive) with M19-MEL; 40.6 µM (inactive) in the assay with LXFL 529. Moreover, the GI50 in the assay on SNB-78 is > 73.3 µM (inactive); in the assay on HOP-18 it was 37.7 µM (inactive).
For `CC(=O)O[C@H]1CSC[C@@H](OC(C)=O)C1[N+](=O)[O-]` (some centres undefined), the GI50 is > 100 µM (inactive) in the assay with RXF 631; 39.1 µM (inactive) in the assay with DMS-114; > 100 µM (inactive) with KM-20L2; > 100 µM (inactive) in the assay on DMS-273; 47.3 µM (inactive) with M19-MEL; 18 µM (inactive) in the assay on LXFL 529. For the same compound, the results for the GI50 in the assay on SNB-78 and with HOP-18 were 33.4 µM (inactive) and 50.7 µM (inactive), respectively.
Consider `O=C1OC2(c3ccccc3Oc3ccccc32)c2ccccc21`, for which the GI50 in the assay with DMS-114, in the assay on KM-20L2, with DMS-273, with M19-MEL, with LXFL 529 and in the assay on SNB-78 was > 100 µM (inactive) throughout. Moreover, in the assay with HOP-18, the GI50 is > 100 µM (inactive).
As to `Cc1cccc(C(C)(C)C)c1NC(=O)C(=O)C(c1cnc2ccccc2n1)[N+](=O)[O-]` (centres undefined), the GI50 in the assay on DMS-114, with KM-20L2, in the assay on DMS-273, with M19-MEL, with LXFL 529 and in the assay with SNB-78 was > 100 µM (inactive) throughout. The GI50 with HOP-18 and in the assay with XF498 was > 100 µM (inactive) throughout.
Consider `O=C(CCn1[nH]c(=O)c(Cl)c(Cl)c1=O)NOCCCc1ccccc1`, for which the GI50 in the assay with RXF 631, with KM-20L2, in the assay on DMS-273, in the assay with M19-MEL, in the assay on LXFL 529 and in the assay on SNB-78 was > 100 µM (inactive) in each case. Further, the GI50 in the assay on HOP-18 and with XF498 was > 100 µM (inactive) in each case.
On to `COc1cc(/C=C/C(=O)Oc2ccccc2)ccc1C(=O)O/C=C/c1ccccc1`, for which the GI50 in the assay on DMS-114, in the assay with KM-20L2, in the assay on DMS-273, with M19-MEL, in the assay with SNB-78 and in the assay with HOP-18 was > 100 µM (inactive) throughout. For the same compound, the GI50 with XF498 was > 100 µM (inactive).
For the compound `NCCCCCCNCc1cccc2ccccc12`, the GI50 is > 100 µM (inactive) in the assay with DMS-114; 58.3 µM (inactive) in the assay on KM-20L2; > 100 µM (inactive) with M19-MEL; > 100 µM (inactive) in the assay on LXFL 529; > 100 µM (inactive) with SNB-78; 24.2 µM (inactive) with HOP-18. Further, in the assay with XF498, the GI50 is 44.2 µM (inactive).
